{
  "source": "paper PMC4304192",
  "about": "“KUD773, a phenylthiazole derivative, displays anticancer activity in human hormone-refractory prostate cancers through inhibition of tubulin polymerization and anti-Aurora A activity” (Journal of Biomedical Science, 2015)",
  "target": "T1, Aurora A kinase (Homo sapiens, UniProt O14965)",
  "T1 construct": "gene AURKA",
  "T1 sequence (O14965 1-403)": "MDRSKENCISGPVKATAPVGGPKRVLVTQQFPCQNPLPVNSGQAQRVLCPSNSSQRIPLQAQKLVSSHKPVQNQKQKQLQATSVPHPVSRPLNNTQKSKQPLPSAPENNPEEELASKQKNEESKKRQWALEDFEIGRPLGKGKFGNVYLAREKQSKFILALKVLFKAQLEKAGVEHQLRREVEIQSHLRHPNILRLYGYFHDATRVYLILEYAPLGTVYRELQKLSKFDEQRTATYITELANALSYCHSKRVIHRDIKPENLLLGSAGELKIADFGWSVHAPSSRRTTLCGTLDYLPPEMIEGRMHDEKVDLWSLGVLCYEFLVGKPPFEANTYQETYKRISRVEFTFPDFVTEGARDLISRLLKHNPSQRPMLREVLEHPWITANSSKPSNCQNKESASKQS",
  "experiment": "Aurora A luminescent kinase assay (Kinase-Glo Plus, […] ATP, LRRWSLG peptide substrate)",
  "type": "biochemical",
  "data": [
    {"smiles": "FC(F)(F)c1cccc(-c2csc(-n3ccnc3)n2)c1", "note": "[KUD773, 2-(1H-imidazol-1-yl)-4-(3-(trifluoromethyl)phenyl)thiazole]", "values": [
      {"measurement": "IC50", "result": 30, "unit": "µM"}
    ]}
  ]
}
